Results: ChEMBL document CHEMBL1201862, “PubChem BioAssay data set” (2004)
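Exposure lasted 48 hours, with cells grown in 96-well plates and compounds tested at five concentrations. Abbreviation: GI50, concentration required for 50% inhibition of growth.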 Activity calls are given as the source filed them. Rule as the data show it: active = GI50 up to about 1.1 µM and inactive = higher.

Experiments:
Experiment in all cases: NCI tumour cell line growth inhibition, 48 h
786-0 = system: 786-0
A498 = system: A498
A549 = system: A549
HCT-116 = system: HCT-116
HT-29 = system: HT-29
IGROV-1 = system: IGROV-1
MOLT-4 = system: MOLT-4
OVCAR-3 = system: OVCAR-3
OVCAR-4 = system: OVCAR-4
RPMI-8226 = system: RPMI-8226
SK-MEL-5 = system: SK-MEL-5
SNB-75 = system: SNB-75
TK-10 = system: TK-10
UACC-257 = system: UACC-257
EKVX = system: EKVX
NCI-H522 = system: NCI-H522
SNB-19 = system: SNB-19

Measured: GI50

O=C(/C=C/c1ccccc1)/C=C/c1ccccc1
inactive: 786-0 30.3 µM | A498 > 100 µM | A549 > 100 µM | HCT-116 17.3 µM | HT-29 17.8 µM | IGROV-1 28.1 µM | MOLT-4 20.7 µM | OVCAR-3 23 µM | OVCAR-4 22.1 µM | RPMI-8226 39.3 µM | SK-MEL-5 33.1 µM | SNB-75 47.6 µM | TK-10 58.2 µM | UACC-257 24.4 µM

CNS(=O)(=O)NNS(=O)(=O)c1ccccc1
inactive: 786-0 > 100 µM | A498 > 100 µM | A549 > 100 µM | EKVX > 100 µM | HCT-116 > 100 µM | HT-29 > 100 µM | IGROV-1 > 100 µM | MOLT-4 > 100 µM | NCI-H522 > 100 µM | OVCAR-3 > 100 µM | RPMI-8226 > 100 µM | SK-MEL-5 > 100 µM | SNB-19 > 100 µM | SNB-75 > 100 µM | TK-10 > 100 µM | UACC-257 > 100 µM

Cc1nc2c(s/c(=N\N)n2-c2ccccc2)c(=O)n1C
inactive: 786-0 > 100 µM | A498 > 100 µM | A549 > 100 µM | EKVX > 100 µM | HCT-116 > 100 µM | HT-29 > 100 µM | IGROV-1 > 100 µM | MOLT-4 > 100 µM | NCI-H522 > 100 µM | OVCAR-4 > 100 µM | RPMI-8226 > 100 µM | SK-MEL-5 > 100 µM | SNB-19 > 100 µM | SNB-75 > 100 µM | TK-10 > 100 µM | UACC-257 > 100 µM

O=C(O)CNS(=O)(=O)c1ccc(NC(=O)c2cccc([N+](=O)[O-])c2)cc1
inactive: 786-0 > 100 µM | A498 > 100 µM | A549 > 100 µM | EKVX > 100 µM | HT-29 > 100 µM | IGROV-1 > 100 µM | MOLT-4 > 100 µM | NCI-H522 > 100 µM | OVCAR-3 > 100 µM | OVCAR-4 > 100 µM | RPMI-8226 > 100 µM | SK-MEL-5 > 100 µM | SNB-19 > 100 µM | SNB-75 > 100 µM | TK-10 > 100 µM | UACC-257 > 100 µM

Cc1ccc(C)c(N2C(=O)C(=O)C(c3nc4ccccc4s3)/C(=N\c3cccc4c(=O)[nH][nH]c(=O)c34)C2=O)c1 (stereo unspecified)
inactive: 786-0 > 100 µM | A498 > 100 µM | A549 > 100 µM | EKVX > 100 µM | HCT-116 > 100 µM | HT-29 > 100 µM | IGROV-1 > 100 µM | MOLT-4 > 100 µM | OVCAR-3 > 100 µM | OVCAR-4 88.5 µM | RPMI-8226 > 100 µM | SK-MEL-5 > 100 µM | SNB-19 > 100 µM | SNB-75 97.9 µM | TK-10 > 100 µM | UACC-257 > 100 µM

Cc1ccc(NC(=O)COC(=O)c2cccc3c(=O)c4ccccc4[nH]c23)cc1
inactive: 786-0 28.4 µM | A498 19.1 µM | A549 36.6 µM | EKVX 16.8 µM | HCT-116 14.6 µM | HT-29 36.6 µM | IGROV-1 44.8 µM | MOLT-4 13.6 µM | NCI-H522 9.29 µM | OVCAR-3 54 µM | OVCAR-4 48.3 µM | RPMI-8226 87.7 µM | SK-MEL-5 21.6 µM | SNB-19 40.6 µM | SNB-75 31.3 µM | TK-10 22 µM | UACC-257 39.9 µM

CC1(C(=O)NCCN(CCNC(=O)C2(C)CC3(C)CC(C)(C2)C(=O)NC3=O)CCNC(=O)C2(C)CC3(C)CC(C)(C2)C(=O)NC3=O)CC2(C)CC(C)(C1)C(=O)NC2=O (stereo unspecified)
inactive: 786-0 > 100 µM | A498 > 100 µM | A549 > 100 µM | EKVX > 100 µM | HCT-116 > 100 µM | HT-29 > 100 µM | IGROV-1 > 100 µM | MOLT-4 > 100 µM | OVCAR-3 > 100 µM | OVCAR-4 > 100 µM | RPMI-8226 > 100 µM | SNB-19 > 100 µM | SNB-75 > 100 µM | UACC-257 > 100 µM

CCOC(=O)NC(=O)c1cn(CCOCCOC(=O)NCCCCCCNC(=O)OCCOCCn2cc(C(=O)NC(=O)OCC)c(=O)[nH]c2=O)c(=O)[nH]c1=O
inactive: 786-0 > 100 µM | A498 > 100 µM | A549 > 100 µM | EKVX > 100 µM | HCT-116 > 100 µM | HT-29 > 100 µM | IGROV-1 > 100 µM | NCI-H522 > 100 µM | OVCAR-3 > 100 µM | OVCAR-4 > 100 µM | RPMI-8226 > 100 µM | SK-MEL-5 > 100 µM | SNB-19 > 100 µM | SNB-75 > 100 µM | TK-10 > 100 µM | UACC-257 > 100 µM

NS(=O)(=O)c1ccc(NC(=O)c2cccc3c(Nc4ccc(S(N)(=O)=O)cc4)c4ccccc4nc23)cc1
inactive: 786-0 25.3 µM | A498 > 100 µM | A549 > 100 µM | EKVX > 100 µM | HCT-116 46.8 µM | HT-29 14.6 µM | IGROV-1 > 100 µM | MOLT-4 4.5 µM | NCI-H522 10.8 µM | OVCAR-3 13.6 µM | OVCAR-4 22.4 µM | RPMI-8226 9.25 µM | SK-MEL-5 41.2 µM | SNB-19 30.8 µM | SNB-75 14.3 µM | TK-10 > 100 µM | UACC-257 32.9 µM

Cc1nn(C(=O)CC(=O)Nc2ccc(Cl)cc2)c(C)c1/N=N/c1ccccc1C(=O)O
inactive: 786-0 > 100 µM | A498 > 100 µM | A549 > 100 µM | EKVX > 100 µM | HCT-116 > 100 µM | HT-29 > 100 µM | IGROV-1 > 100 µM | MOLT-4 > 100 µM | NCI-H522 > 100 µM | OVCAR-3 > 100 µM | OVCAR-4 > 100 µM | RPMI-8226 > 100 µM | SK-MEL-5 > 100 µM | SNB-19 > 100 µM | SNB-75 39.5 µM | TK-10 > 100 µM | UACC-257 > 100 µM

CCCCNC(=O)CCN(C(=O)O)S(=O)(=O)c1ccc(NC(=O)c2ccccc2)cc1
inactive: 786-0 11.9 µM | A498 > 100 µM | A549 > 100 µM | EKVX > 100 µM | HCT-116 > 100 µM | HT-29 22 µM | IGROV-1 > 100 µM | MOLT-4 > 100 µM | NCI-H522 > 100 µM | OVCAR-3 > 100 µM | OVCAR-4 > 100 µM | RPMI-8226 > 100 µM | SK-MEL-5 > 100 µM | SNB-19 > 100 µM | SNB-75 > 100 µM | TK-10 > 100 µM | UACC-257 > 100 µM

O=C1CCC2(c3ccc(Cl)cc3)Nc3cc(Cl)ccc3N12 (stereo unspecified)
inactive: 786-0 10.2 µM | A498 12.1 µM | A549 11.5 µM | EKVX 15 µM | HCT-116 7.06 µM | HT-29 12.4 µM | IGROV-1 13.6 µM | NCI-H522 10.2 µM | OVCAR-3 10.4 µM | OVCAR-4 10.6 µM | RPMI-8226 16.4 µM | SK-MEL-5 12.4 µM | SNB-19 16.4 µM | SNB-75 12.2 µM | UACC-257 13.6 µM
